Tests used:
[1] = tested on: APP/PS1 transgenic AD mice; experiment: New object recognition test in APP/PS1 transgenic AD mice; assay type: in vivo, mouse; conditions: continuously for 1 week, mice of 10 months old
Experimental: A new object recognition test was carried out by an open field box (40×40×35 cm, made of blue opaque plastic) with reference to a behavior test scheme recorded by Leger, M., et al. Object recognition test in mice. Nat Protoc. 8, 2531-2537 (2013). On the first day, mice were put into the open field box to adapt for 10 min. On the second day, each mouse was lightly put in the center of the box, two similar objects (a battery I) were put in the central area and freely explore for 10 min, and then the mice were sent back to feeding cages. After 3 h, the mice were put back to the box again (one battery was replaced with a doll toy which was 10 cm high) for 10 min to carry out a memory retention test. A video was analyzed by Etho Vision XT 14 software, and the time for exploring new/old objects by the mice was recorded. The discrimination index was computed as (Tnovel−Tfamliar)/(Tnovel+Tfamiliar).
APP/PS1 transgenic mice of 10 months old (purchased from MODEL ORGANISMS) were selected, and equally divided into three groups; the mice were administrated with a PBS buffer solution (group 2), […]

[2] = target: T1, murine ATP6V1B2 1-172aa truncated sequence (Mus musculus, UniProt P62814); experiment: Co-immunoprecipitation of EGFP-tagged QD202 with Myc-tagged ATP6V1B2 1-172aa truncated sequence in 293 cells; assay type: binding; conditions: Myc antibody, immunoblotting
T1 construct: expressed in transfected cells; host or cells: 293 cells
Excerpt: Expression plasmids including murine ATP6V1B2 full-length sequence, 1-286aa truncated sequence or 1-172aa truncated sequence with a Myc tag are respectively constructed; the amino acid sequence of the murine ATP6V1B2 full-length sequence was as set forth in SEQ ID NO. 8, the amino acid sequence of the murine ATP6V1B21-286aa was as set forth in SEQ ID NO. 10; the amino acid sequence of the murine ATP6V1B21-172aa as set forth in as SEQ ID NO. 11; and these plasmids were respectively called as an ATP6V1B2 full-length expression plasmid, an ATP6V1B21-286aa expression plasmid and an ATP6V1B21-172aa expression plasmid. Meanwhile, a QD202 expression plasmid with an EGFP tag was constructed. […]
Then a Protein G agarose bead was added to be bound to the Myc antibody, so as to precipitate the ATP6V1B2 full-length protein, the 1-286aa truncated sequence or the 1-172aa truncated sequence, and proteins which were bound to one another, and finally the proteins subjected to co-immunoprecipitation was detected by virtue of an immunoblotting method.

ATP6V1B2 = ATP6V1B2 (Mus musculus, UniProt P62814); experiment: Immunoprecipitation from hippocampus of mice given biotin-labeled polypeptide, with SDS-PAGE and protein mass spectrum identification; assay type: binding; set-up: from tissue; host or cells: mouse brain hippocampus; conditions: biotin-labeled polypeptide 6.25 mg/kg through veins, hippocampus collected after 4 h, compared with disordered control QD201
Experimental: (1) Polypeptide QD202 was synthesized according to the amino acid sequence as set forth in SEQ ID NO. 1, and a biotin label was added at the […] of the polypeptide; and the amino acid sequence of the QD202 was randomly disorganized, a disordered control QD201 (the amino acid sequence as set forth in SEQ ID NO. 7) was synthesized, and the biotin label was added at the […] of the polypeptide. The polypeptide QD202 and the QD201 were dissolved by PBS, and a storage solution is prepared with the concentration of 500 μM.
(2) The biotin-labeled QD202 and QD201 were respectively feed to 2 C57BL/6 mice of 8 months old through veins at the dosage of 6.25 mg/kg. The mice were anesthetized after 4 h, brain hippocampus tissues were collected, a lysis buffer solution was added, the tissues were crushed by mechanical grinding, and then supernatant was collected after centrifuging. The biotin antibody and Protein G agarose beads were added into the supernatant for immunoprecipitation, the test steps referred to Using Antibodies: A Laboratory Manual [J]. Science Press, 2002. The proteins were eluted by a protein loading buffer solution. […]

T1 sequence (P62814 1-172): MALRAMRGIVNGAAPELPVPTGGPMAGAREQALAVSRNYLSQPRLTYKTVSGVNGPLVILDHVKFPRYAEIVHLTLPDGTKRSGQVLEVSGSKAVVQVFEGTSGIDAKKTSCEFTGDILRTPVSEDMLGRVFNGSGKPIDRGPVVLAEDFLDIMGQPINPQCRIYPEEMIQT
Chain of ATP6V1B2 (P62814 whole entry): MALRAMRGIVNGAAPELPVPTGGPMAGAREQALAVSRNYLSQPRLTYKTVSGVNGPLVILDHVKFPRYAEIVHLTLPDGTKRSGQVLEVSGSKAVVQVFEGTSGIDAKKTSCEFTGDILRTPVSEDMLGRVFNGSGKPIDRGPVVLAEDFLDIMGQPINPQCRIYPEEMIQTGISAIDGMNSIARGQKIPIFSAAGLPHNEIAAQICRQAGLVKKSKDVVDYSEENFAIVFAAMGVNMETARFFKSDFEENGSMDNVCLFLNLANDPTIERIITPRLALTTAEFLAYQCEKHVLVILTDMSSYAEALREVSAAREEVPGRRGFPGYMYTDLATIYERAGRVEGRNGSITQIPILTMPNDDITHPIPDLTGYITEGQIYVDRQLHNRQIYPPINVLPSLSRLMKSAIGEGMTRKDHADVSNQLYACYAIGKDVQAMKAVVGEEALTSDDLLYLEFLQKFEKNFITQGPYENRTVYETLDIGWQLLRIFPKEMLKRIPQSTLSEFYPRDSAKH

For “QD202: polypeptide synthesized according to the amino acid sequence as set forth in SEQ ID NO. 1 (YGRKKRRQRRRSPVDVVCS; QD202)”, the “learning and cognitive functions in new object recognition” value ([1]; intragastric, 6.25 mg/kg) was “obvious improvement of learning and cognitive functions”, the “learning and cognitive functions in new object recognition” value ([1]; intravenous, 1.25 mg/kg) was “obvious improvement on learning and cognitive functions” and the “binding to ATP6V1B2 1-172aa truncated sequence by co-immunoprecipitation” value [2] was “only the full-length ATP6V1B2 protein can be combined”. For the same substance, the “protein specifically bound to the polypeptide (mass spectrum identification)” value (ATP6V1B2) was “protein specifically bound to QD202 was ATP6V1B2”.

Source: patent publication US20240343762A1, “USE OF PROTON PUMP MODULATOR IN PREPARING REAGENT” (SHANGHAI QUIETD BIOTECHNOLOGY CO. LTD., priority 2021, published 2024)
